# Reference: patent US10377717B2, “Farnesoid X receptor agonists and uses thereof” (Metacrine, Inc., priority 2015, dated 2019)
# Target: hFXR (Homo sapiens (Human), UniProt Q96RI1)
# Experiment: In Vitro FXR Assay (TK), luciferase reporter in transfected CV-1 cells
# Format: cell-based
# Details: TK-ECRE-luc reporter, hFXR/hRXR, 18 hrs, maximum efficacy <25% of Fexaramine control classified as '+'
# Procedure: CV-1 cells were seeded at a density of 2,000,000 cells in a T175 flask with DMEM+10% charcoal double-stripped FBS and incubated at 37° C. in 5% CO2 for 18 h (O/N).
# After 18 h of incubation, the medium in the T175 flask was changed with fresh DMEM+10% charcoal super-stripped serum. In a polypropylene tube, 2500 μL OptiMEM (Life Technologies, Cat #31985-062) was combined with expression plasmids for hFXR, hRXR, TK-ECRE-luc and pCMX-YFP. The tube was then briefly vortexed and incubated at room temperature for 5 minutes. Transfection reagent (X-tremeGENE HP from Roche, Cat #06 366 236 001) was added to the OptiMEM/plasmid mixture vortexed and incubated at room temperature for 20 minutes. Following incubation, the transfection reagent/DNA mixture complex was added to cells in the T175 flask and the cells were incubated at 37° C. in 5% CO2 for 18 h (O/N).
# Compounds were serially diluted in DMSO and added to transfected CV-1 cells. The cells were then incubated for 18 hrs. The next day cells were lysed and examined for luminescence.
# hFXR, sequence (Q96RI1 whole entry): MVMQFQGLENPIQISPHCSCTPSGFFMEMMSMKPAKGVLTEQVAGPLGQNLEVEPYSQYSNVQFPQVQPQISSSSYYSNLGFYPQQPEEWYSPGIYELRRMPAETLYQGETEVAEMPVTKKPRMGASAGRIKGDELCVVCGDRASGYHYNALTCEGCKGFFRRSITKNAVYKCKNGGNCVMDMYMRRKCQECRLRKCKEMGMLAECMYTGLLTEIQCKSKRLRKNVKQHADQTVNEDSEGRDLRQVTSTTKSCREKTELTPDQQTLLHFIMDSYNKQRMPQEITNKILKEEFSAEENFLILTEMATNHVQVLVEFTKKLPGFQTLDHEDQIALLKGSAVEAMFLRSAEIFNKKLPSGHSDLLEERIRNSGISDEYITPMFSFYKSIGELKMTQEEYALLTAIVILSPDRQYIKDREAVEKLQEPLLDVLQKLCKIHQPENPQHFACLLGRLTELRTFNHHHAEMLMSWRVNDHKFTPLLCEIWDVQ
# hFXR, sequence (P19793 whole entry partner): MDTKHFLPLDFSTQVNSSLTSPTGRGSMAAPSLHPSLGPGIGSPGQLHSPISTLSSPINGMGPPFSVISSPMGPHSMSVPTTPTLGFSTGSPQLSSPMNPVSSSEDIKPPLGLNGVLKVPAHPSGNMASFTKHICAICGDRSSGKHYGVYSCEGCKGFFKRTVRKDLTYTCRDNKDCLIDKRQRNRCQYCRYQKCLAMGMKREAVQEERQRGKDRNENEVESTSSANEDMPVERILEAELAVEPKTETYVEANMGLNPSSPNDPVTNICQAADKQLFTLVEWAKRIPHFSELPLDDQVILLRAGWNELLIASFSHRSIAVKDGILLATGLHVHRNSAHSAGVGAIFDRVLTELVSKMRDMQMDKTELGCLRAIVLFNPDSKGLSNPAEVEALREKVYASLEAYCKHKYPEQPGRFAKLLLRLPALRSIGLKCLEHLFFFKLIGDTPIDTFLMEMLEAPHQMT
row,EC50 [µM],Structure (SMILES)
1,≤ 1,"COC(=O)c1ccc2c(N(Cc3ccc(-c4ccc(OC)c(C)c4)cc3)C(=O)CC3CC3)nccc2c1 [Compound 80, Methyl 1-(2-cyclopropyl-N-((4′-methoxy-3′-methyl-[1,1′-biphenyl]-4-yl)methyl)acetamido)isoquinoline-6-carboxylate]"
2,≤ 1,"CCCCC(=O)N(Cc1ccc(-c2ccc(OC)c(C)c2)cc1)c1nccc2cc(C(=O)OC)ccc12 [Compound 81, Methyl 1-(N-((4′-methoxy-3′-methyl-[1,1′-biphenyl]-4-yl)methyl)pentanamido) isoquinoline-6-carboxylate]"
3,≤ 1,"CCCC(=O)N(Cc1ccc(-c2ccc(OC)c(C)c2)cc1)c1nccc2cc(C(=O)OC)ccc12 [Compound 82, Methyl 1-(N-((4′-methoxy-3′-methyl-[1,1′-biphenyl]-4-yl)methyl)butyramido)isoquinoline-6-carboxylate]"
4,1 to 10,"COC(=O)c1ccc2c(N(Cc3ccc(-c4ccc(OC)c(C)c4)cc3)C(=O)CC3COC3)nccc2c1 [Compound 83, Methyl 1-(N-((4′-methoxy-3′-methyl-[1,1′-biphenyl]-4-yl)methyl)-2-(oxetan-3-yl)acetamido)isoquinoline-6-carboxylate]"
5,≥ 10,"COC(=O)c1ccc2c(N(Cc3ccc(-c4ccc(OC)c(C)c4)cc3)C(=O)CCO)nccc2c1 [Compound 84, Methyl 1-(3-hydroxy-N-((4′-methoxy-3′-methyl-[1,1′-biphenyl]-4-yl)methyl)propanamido) isoquinoline-6-carboxylate]"
6,≥ 10,"COC(=O)c1ccc2c(N(Cc3ccc(-c4ccc(OC)c(C)c4)cc3)C(=O)CCCO)nccc2c1 [Compound 85, Methyl 1-(4-hydroxy-N-((4′-methoxy-3′-methyl-[1,1′-biphenyl]-4-yl)methyl)butanamido) isoquinoline-6-carboxylate]"
7,≥ 10,"COC(=O)c1ccc2c(N(Cc3ccc(-c4ccc(OC)c(C)c4)cc3)C(=O)CCCCO)nccc2c1 [Compound 86, Methyl 1-(5-hydroxy-N-((4′-methoxy-3′-methyl-[1,1-biphenyl]-4-yl)methyl)pentanamido) isoquinoline-6-carboxylate]"
8,≤ 1,"COc1ccc([C@H]2CC[C@H](CN(C(=O)CC(C)(C)C)c3nccc4cc(C(=O)OC(C)C)ccc34)CC2)cc1C [Compound 87, Isopropyl 1-(N-((trans-4-(4-methoxy-3-methylphenyl)cyclohexyl)methyl)-3,3-dimethylbutanamido)isoquinoline-6-carboxylate]"
9,≤ 1,"CCC(C)(C)CC(=O)N(C[C@H]1CC[C@H](c2ccc(OC)c(C)c2)CC1)c1nccc2cc(C(=O)OC(C)C)ccc12 [Compound 88, Isopropyl 1-(N-((trans-4-(4-methoxy-3-methylphenyl)cyclohexyl)methyl)-3,3-dimethylpentanamido)isoquinoline-6-carboxylate]"
10,1 to 10,"COC(=O)c1ccc2c(N(C[C@H]3CC[C@H](c4ccccc4C)CC3)C(=O)CC(C)(C)C)nccc2c1 [Compound 89, Methyl 1-(3,3-dimethyl-N-((trans-4-(o-tolyl)cyclohexyl)methyl)butanamido)isoquinoline-6-carboxylate]"
11,≤ 1,"COC(=O)c1ccc2c(N(C[C@H]3CC[C@H](c4cccc(C)c4)CC3)C(=O)CC(C)(C)C)nccc2c1 [Compound 90, Methyl 1-(3,3-dimethyl-N-((trans-4-(m-tolyl)cyclohexyl)methyl)butanamido)isoquinoline-6-carboxylate]"
12,≥ 10,"COC(=O)c1ccc2c(N(C[C@H]3CC[C@H](c4ccccc4OC)CC3)C(=O)CC(C)(C)C)nccc2c1 [Compound 92, Methyl 1-(N-((trans-4-(2-methoxyphenyl)cyclohexyl)methyl)-3,3-dimethylbutanamido)isoquinoline-6-carboxylate]"
13,≤ 1,"COC(=O)c1ccc2c(N(C[C@H]3CC[C@H](c4ccc(OC)cc4)CC3)C(=O)CC(C)(C)C)nccc2c1 [Compound 94, Methyl 1-(N-((trans-4-(4-methoxyphenyl)cyclohexyl)methyl)-3,3-dimethylbutanamido)isoquinoline-6-carboxylate]"

# Continued, molecule first:
row,Structure (SMILES),EC50 [µM]
1,"COC(=O)c1ccc2c(N(Cc3ccc(-c4ccc(OC)c(C)c4)cc3)C(=O)CC(C)C)nccc2c1 [Compound 70, Methyl 1-(N-((4′-methoxy-3′-methyl-[1,1′-biphenyl]-4-yl)methyl)-3-methylbutanamido)isoquinoline-6-carboxylate]",≤ 1
2,"COC(=O)c1ccc2c(N(Cc3ccc(-c4ccc(OC)c(C)c4)cc3)C(=O)C3CCCC3)nccc2c1 [Compound 71, Methyl 1-(N-((4′-methoxy-3′-methyl-[1,1′-biphenyl]-4-yl)methyl)cyclopentanecarboxamido) isoquinoline-6-carboxylate]",≤ 1
3,"COC(=O)c1ccc2c(N(Cc3ccc(-c4ccc(OC)c(C)c4)cc3)C(=O)CC3CCCC3)nccc2c1 [Compound 72, Methyl 1-(2-cyclopentyl-N-((4′-methoxy-3′-methyl-[1,1′-biphenyl]-4-yl)methyl)acetamido)isoquinoline-6-carboxylate]",≤ 1
4,"COC(=O)c1ccc2c(N(Cc3ccc(-c4ccc(OC)c(C)c4)cc3)C(=O)c3ccccc3)nccc2c1 [Compound 73, Methyl 1-(N-((4′-methoxy-3′-methyl-[1,1′-biphenyl]-4-yl)methyl)benzamido)isoquinoline-6-carboxylate]",≤ 1
5,"COC(=O)c1ccc2c(N(Cc3ccc(-c4ccc(OC)c(C)c4)cc3)C(=O)CC3CCCCC3)nccc2c1 [Compound 74, Methyl 1-(2-cyclohexyl-N-((4′-methoxy-3′-methyl-[1,1′-biphenyl]-4-yl)methyl)acetamido)isoquinoline-6-carboxylate]",1 to 10
6,"COC(=O)c1ccc2c(N(Cc3ccc(-c4ccc(OC)c(C)c4)cc3)C(=O)Cc3ccccc3)nccc2c1 [Compound 75, Methyl 1-(N-((4′-methoxy-3′-methyl-[1,1′-biphenyl]-4-yl)methyl)-2-phenylacetamido)isoquinoline-6-carboxylate]",≥ 10
7,"COC(=O)c1ccc2c(N(Cc3ccc(-c4ccc(OC)c(C)c4)cc3)C(=O)CCC(C)(C)C)nccc2c1 [Compound 76, Methyl 1-(N-((4′-methoxy-3′-methyl-[1,1′-biphenyl]-4-yl)methyl)-4,4-dimethylpentanamido)isoquinoline-6-carboxylate]",≤ 1
8,"COC(=O)c1ccc2c(N(Cc3ccc(-c4ccc(OC)c(C)c4)cc3)C(=O)CCc3ccccc3)nccc2c1 [Compound 77, Methyl 1-(N-((4′-methoxy-3′-methyl-[1,1′-biphenyl]-4-yl)methyl)-3-phenylpropanamido)isoquinoline-6-carboxylate]",1 to 10
9,"COC(=O)c1ccc2c(N(Cc3ccc(-c4ccc(OC)c(C)c4)cc3)C(=O)CCCOCc3ccccc3)nccc2c1 [Compound 78, Methyl 1-(4-(benzyloxy)-N-((4′-methoxy-3′-methyl-[1,1′-biphenyl]-4-yl)methyl)butanamido)isoquinoline-6-carboxylate]",≥ 10
10,"COC(=O)c1ccc2c(N(Cc3ccc(-c4ccc(OC)c(C)c4)cc3)C(=O)CC3CCC3)nccc2c1 [Compound 79, Methyl 1-(2-cyclobutyl-N-((4′-methoxy-3′-methyl-[1,1′-biphenyl]-4-yl)methyl)acetamido)isoquinoline-6-carboxylate]",≤ 1
